The text below walks through data of patent EP0782997A2, “Triazolopyrimidine derivatives” (SHELL INTERNATIONALE RESEARCH MAATSCHAPPIJ B.V., priority 1991, dated 1993).

Experiment [1] concerns Alternaria solani. The experiment can be described thus: MIC determination by serial dilution in microtitre plates. The experiment is classed as cell-based. The conditions noted are these: lowest concentration without mycelial growth, V8 juice nutrient solution, 20°C, 6-8 days, visual inspection. Here is the method: (§1) Determination of MIC-Values of compounds against various phytopathogenic fungi
(§2) The MIC (Minimum Inhibition Concentration)-values were determined by serial dilution tests using 48-well microtitre plates. The dilution of the test compounds in the nutrient solution and the distribution to the wells were carried out by a TECAN RSP 5000 robotic sample processor.
(§3) For preparation of the nutrient solution, V8 juice (Trade Mark) was neutralised with calcium carbonate and centrifuged. The supernatant was diluted with distilled water (1:5) to the final concentration.
(§4) The fungi (Alternaria solani, Botrytis cinerea, Septoria nodorum) were added into the wells as a droplet of spore suspension. The microtitre plates were then incubated at 20°C for 6-8 days. The MIC-value was determined by visual inspection of the plates. In the case of Alternaria solani and Botrytis cinerea, the lowest concentration in the dilution series without mycelial growth was defined to be the MIC-value. For Septoria nodorum, no MIC-value but only a strong inhibition of growth was regularly observed.

Experiment [2] deals with Botrytis cinerea. Described as above. The experiment is classed as cell-based. The following applies: lowest concentration without mycelial growth, V8 juice nutrient solution, 20°C, 6-8 days, visual inspection. Here is the method:
as §1, §2, §3, §4

Experiment [3] concerns Venturia inaequalis. The experiment can be described thus: Fungicidal activity against Venturia inaequalis on Malus sp. (apple cuttings, protectant spray). The arrangement: key: 0 = no infection; 1 = 1-10% infection; 2 = 11-40% infection; 3 = 41-100% infection. The experiment is classed as in vivo. The following applies: extent of infection score; apple cuttings variety Morgenduft; test compound 400 ppm; infected after 24 hours; assessed after about 14 days. Here is the method:
Fungicidal activity against Venturia inaequalis on Malus sp.
Apple cuttings of the variety Morgenduft, which are about 6 weeks old, were treated with a solution of the test compound (400 ppm) in water/acetone/Triton X or water/methanol/Triton X. After 24 hours, the plants were infected with a conidia suspension of Venturia inaequalis (about 50,000 conidia/ml), incubated in a dark climatic chamber at a relative humidity of 100% for 48 hours and then kept at a relative humidity of 95-99% and temperature of 18-20°C during the day and 13°C during the night for about 14 days. The extent of infection was assessed according to the following scheme:- • 0 = no infection • 1 = 1-10% infection • 2 = 11-40% infection • 3 = 41-100% infection The results of these tests are set out in Table II below:-

Experiment [4] deals with Alternaria solani. The experiment can be described thus: Activity against tomato early blight (AS), Example 120. The experiment is classed as in vivo. The following applies: tomato seedlings, foliar spray as described under (a) (1000 ppm), contact prophylactic; disease control rating.
The test system of experiment [5] is Botrytis cinerea. The experiment can be described thus: Direct protectant activity against broad bean grey mould (BCB), Example 120. The conditions noted are these: broad bean plants, foliar spray 1000 ppm, disease control rating. The experiment is classed as in vivo.
Experiment [6] concerns Leptosphaeria nodorum. The experiment can be described thus: Activity against wheat leafspot (LN), Example 120. The experiment is classed as in vivo. The conditions noted are these: wheat plants, foliar spray 1000 ppm, direct therapeutic; disease control rating.
In experiment [7] the test system is Erysiphe graminis f.sp. hordei. In words: Activity against barley powdery mildew (EG), Example 120. The experiment is classed as in vivo. The following applies: barley seedlings, foliar spray 1000 ppm, direct therapeutic; disease control rating.
Experiment [8] has as its system Pyricularia oryzae. The class given is in vivo. The following applies: rice seedlings, foliar spray 1000 ppm, direct therapeutic; disease control rating.
Experiment [9] relates to Pseudocercosporella herpotrichoides. In words: Activity against wheat eyespot in-vitro (PHI), Example 120. The experiment is classed as cell-based. The conditions noted are these: 50 ppm compound, 2.5% acetone, 20°C, 12 days, mycelial growth, rating.
Experiment [10] deals with Rhizoctonia solani. The experiment can be described thus: Activity against Rhizoctonia in-vitro (RSI), Example 120. The experiment is classed as cell-based. The following applies: 50 ppm compound, 2.5% acetone, 20°C, 10 days, mycelial growth, rating.

In brackets after ≈: the same amount, converted by molar mass.

By MIC is commonly meant the lowest concentration found to suppress growth. In the case of `Clc1ccccc1-c1c(I)nc2ncnn2c1NC1CCCC1` [Example 6, 5-iodo-6-(2-chlorophenyl)-7-cyclopentylamino-1,2,4-triazolo[1,5-a]pyrimidine], the MIC in experiment [1] came to 3.13 µg/mL (≈ 7.12 µM); in [2] it was 6.25 µg/mL (≈ 14.2 µM).
`CC(C)Nc1c(-c2ccccc2F)c(Cl)nc2ncnn12` [Example 41]: in experiment [3], the Activity is reported as 0. Besides, the MIC in [1] was determined as 12.5 µg/mL (≈ 40.9 µM); in [2] it was 25 µg/mL (≈ 81.8 µM). In addition, the “Fungicidal Activity AS” value in experiment [4] was 2 (2 = greater than 80% disease control). In addition, the “Fungicidal Activity BCB” value in experiment [5] is 2 (2 = greater than 80% disease control). Besides, the “Fungicidal Activity LN” value in experiment [6] is listed as 2 (2 = greater than 80% disease control). Moreover, the “Fungicidal Activity EG” value in [7] is recorded as 2 (2 = greater than 80% disease control). In addition, the “Fungicidal Activity PO” value in experiment [8] is on record as 2 (2 = greater than 80% disease control). Also, the “Fungicidal Activity PHI” value in experiment [9] is on record as 1 (1 = about 50-80% disease control). In addition, in [10], the “Fungicidal Activity RSI” value is listed as 2 (2 = greater than 80% disease control).
Consider `Cc1ccc(-c2c(Cl)nc3ncnn3c2NC2CCCC2)cc1` [Example 1, 5-chloro-6-(4-methylphenyl)-7-cyclo-pentylamino-1,2,4-triazolo[1,5-a]pyrimidine], for which the Activity in [3] is on record as 1 (1 = 1-10% infection). The MIC in experiment [1] was found to be 1.56 µg/mL (≈ 4.76 µM); in experiment [2], 12.5 µg/mL (≈ 38.1 µM).
In experiment [3], `COc1ccc(-c2cnc3ncnn3c2NC2CCCC2)cc1` [Example 3, 6-(4-methoxyphenyl)-7-cyclopentylamino-1,2,4-triazolo[1,5-a]pyrimidine] registered an Activity of 2.5.
The molecule `Brc1nc2ncnn2c(NC2CCCC2)c1-c1ccccc1` [Example 2, 5-bromo-6-phenyl-7-cyclopentylamino-1,2,4-triazolo[1,5-a]pyrimidine] came in with an Activity in experiment [3] of 0.
Regarding `CNc1nc2ncnn2c(NC2CCCC2)c1-c1ccccc1` [Example 4, 5-methylamino-6-phenyl-7-cyclopentylamino-1,2,4-triazolo[1,5-a]pyrimidine], the Activity in [3] was 2.3.
